# Experimental data taken from PubChem BioAssay (NCI).
#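 The concentration for 50% growth inhibition is given as GI50. TGI: total growth inhibition.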
# Legend:
# Test in all cases: DTP human tumour cell line panel, 384-well format
# 786-0 renal = test system: 786-0 renal
# A498 renal = test system: A498 renal
# A549 NSCLC = test system: A549 NSCLC
# ACHN renal = test system: ACHN renal
# BT-549 breast = test system: BT-549 breast
# CAKI-1 renal = test system: CAKI-1 renal
# CCRF-CEM leukemia = test system: CCRF-CEM leukemia
# COLO 205 colon = test system: COLO 205 colon
# DU-145 prostate = test system: DU-145 prostate
# HCC-2998 colon = test system: HCC-2998 colon
# HCT-116 colon = test system: HCT-116 colon
# HCT-15 colon = test system: HCT-15 colon
# HL-60(TB) leukemia = test system: HL-60(TB) leukemia
# HOP-62 NSCLC = test system: HOP-62 NSCLC
# HOP-92 NSCLC = test system: HOP-92 NSCLC
# HT29 colon = test system: HT29 colon
# IGROV1 ovarian = test system: IGROV1 ovarian
# K-562 leukemia = test system: K-562 leukemia
# KM12 colon = test system: KM12 colon
# LOX IMVI melanoma = test system: LOX IMVI melanoma
# M14 melanoma = test system: M14 melanoma
# MALME-3M melanoma = test system: MALME-3M melanoma
# MCF7 breast = test system: MCF7 breast
# MDA-MB-231 breast = test system: MDA-MB-231 breast
# MDA-MB-435 melanoma = test system: MDA-MB-435 melanoma
# MDA-MB-468 breast = test system: MDA-MB-468 breast
# MOLT-4 leukemia = test system: MOLT-4 leukemia
# NCI-H226 lung = test system: NCI-H226 lung
# NCI-H23 lung = test system: NCI-H23 lung
# NCI-H322M lung = test system: NCI-H322M lung
# NCI-H460 NSCLC = test system: NCI-H460 NSCLC
# NCI-H522 lung = test system: NCI-H522 lung
# NCI/ADR-RES ovarian = test system: NCI/ADR-RES ovarian
# OVCAR-3 ovarian = test system: OVCAR-3 ovarian
# OVCAR-4 ovarian = test system: OVCAR-4 ovarian
# OVCAR-5 ovarian = test system: OVCAR-5 ovarian
# OVCAR-8 ovarian = test system: OVCAR-8 ovarian
# PC-3 prostate = test system: PC-3 prostate
# RPMI-8226 leukemia = test system: RPMI-8226 leukemia
# RXF 393 renal = test system: RXF 393 renal
# SF-268 CNS = test system: SF-268 CNS
# SF-295 CNS = test system: SF-295 CNS
# SF-539 CNS = test system: SF-539 CNS
# SK-MEL-2 melanoma = test system: SK-MEL-2 melanoma
# SK-MEL-28 melanoma = test system: SK-MEL-28 melanoma
# SK-MEL-5 melanoma = test system: SK-MEL-5 melanoma
# SK-OV-3 ovarian = test system: SK-OV-3 ovarian
# SN12C renal = test system: SN12C renal
# SNB-19 CNS = test system: SNB-19 CNS
# SR leukemia = test system: SR leukemia
# SW-620 colon = test system: SW-620 colon
# T-47D breast = test system: T-47D breast
# TK-10 renal = test system: TK-10 renal
# U251 glioblastoma = test system: U251 glioblastoma
# UACC-257 melanoma = test system: UACC-257 melanoma
# UACC-62 melanoma = test system: UACC-62 melanoma
# UO-31 renal = test system: UO-31 renal
compound,measurement,setting,value
COc1ccc(-c2ccc3ncc4c(c3c2)n(-c2ccc(N3CCNCC3)c(C(F)(F)F)c2)c(=O)n4C)cn1,GI50,786-0 renal,< 0.01 µM
same,TGI,786-0 renal,0.151 µM
same,GI50,A498 renal,< 0.01 µM
same,TGI,A498 renal,< 0.01 µM
same,GI50,A549 NSCLC,< 0.01 µM
same,TGI,A549 NSCLC,0.0254 µM
same,GI50,ACHN renal,< 0.01 µM
same,TGI,ACHN renal,0.0438 µM
same,GI50,BT-549 breast,< 0.01 µM
same,TGI,BT-549 breast,0.0172 µM
same,GI50,CAKI-1 renal,< 0.01 µM
same,TGI,CAKI-1 renal,0.0149 µM
same,GI50,CCRF-CEM leukemia,< 0.01 µM
same,TGI,CCRF-CEM leukemia,0.0136 µM
same,GI50,COLO 205 colon,< 0.01 µM
same,TGI,COLO 205 colon,0.0217 µM
same,GI50,DU-145 prostate,< 0.01 µM
same,TGI,DU-145 prostate,0.128 µM
same,GI50,HCC-2998 colon,< 0.01 µM
same,TGI,HCC-2998 colon,0.103 µM
same,GI50,HCT-116 colon,< 0.01 µM
same,TGI,HCT-116 colon,0.13 µM
same,GI50,HCT-15 colon,< 0.01 µM
same,TGI,HCT-15 colon,0.129 µM
same,GI50,HL-60(TB) leukemia,0.0155 µM
same,TGI,HL-60(TB) leukemia,0.111 µM
same,GI50,HOP-62 NSCLC,< 0.01 µM
same,TGI,HOP-62 NSCLC,0.0216 µM
same,GI50,HOP-92 NSCLC,< 0.01 µM
same,TGI,HOP-92 NSCLC,0.0191 µM
same,GI50,HT29 colon,< 0.01 µM
same,TGI,HT29 colon,0.135 µM
same,GI50,IGROV1 ovarian,< 0.01 µM
same,TGI,IGROV1 ovarian,< 0.01 µM
same,GI50,K-562 leukemia,< 0.01 µM
same,TGI,K-562 leukemia,0.124 µM
same,GI50,KM12 colon,< 0.01 µM
same,TGI,KM12 colon,0.141 µM
same,GI50,LOX IMVI melanoma,< 0.01 µM
same,TGI,LOX IMVI melanoma,0.049 µM
same,GI50,M14 melanoma,< 0.01 µM
same,TGI,M14 melanoma,0.0649 µM
same,GI50,MALME-3M melanoma,< 0.01 µM
same,TGI,MALME-3M melanoma,< 0.01 µM
same,GI50,MCF7 breast,< 0.01 µM
same,TGI,MCF7 breast,0.12 µM
same,GI50,MDA-MB-231 breast,< 0.01 µM
same,TGI,MDA-MB-231 breast,0.158 µM
same,GI50,MDA-MB-435 melanoma,< 0.01 µM
same,TGI,MDA-MB-435 melanoma,0.034 µM
same,GI50,MDA-MB-468 breast,< 0.01 µM
same,TGI,MDA-MB-468 breast,< 0.01 µM
same,GI50,MOLT-4 leukemia,< 0.01 µM
same,TGI,MOLT-4 leukemia,< 0.01 µM
same,GI50,NCI-H226 lung,< 0.01 µM
same,TGI,NCI-H226 lung,0.0325 µM
same,GI50,NCI-H23 lung,0.0114 µM
same,TGI,NCI-H23 lung,0.082 µM
same,GI50,NCI-H322M lung,< 0.01 µM
same,TGI,NCI-H322M lung,0.109 µM
same,GI50,NCI-H460 NSCLC,< 0.01 µM
same,TGI,NCI-H460 NSCLC,0.0833 µM
same,GI50,NCI-H522 lung,< 0.01 µM
same,TGI,NCI-H522 lung,0.0509 µM
same,GI50,NCI/ADR-RES ovarian,0.107 µM
same,TGI,NCI/ADR-RES ovarian,0.226 µM
same,GI50,OVCAR-3 ovarian,< 0.01 µM
same,TGI,OVCAR-3 ovarian,0.096 µM
same,GI50,OVCAR-4 ovarian,< 0.01 µM
same,TGI,OVCAR-4 ovarian,< 0.01 µM
same,GI50,OVCAR-5 ovarian,< 0.01 µM
same,TGI,OVCAR-5 ovarian,0.105 µM
same,GI50,OVCAR-8 ovarian,< 0.01 µM
same,TGI,OVCAR-8 ovarian,0.124 µM
same,GI50,PC-3 prostate,< 0.01 µM
same,TGI,PC-3 prostate,0.106 µM
same,GI50,RPMI-8226 leukemia,< 0.01 µM
same,TGI,RPMI-8226 leukemia,< 0.01 µM
same,GI50,RXF 393 renal,< 0.01 µM
same,TGI,RXF 393 renal,0.0193 µM
same,GI50,SF-268 CNS,< 0.01 µM
same,TGI,SF-268 CNS,0.131 µM
same,GI50,SF-295 CNS,< 0.01 µM
same,TGI,SF-295 CNS,0.0105 µM
same,GI50,SF-539 CNS,< 0.01 µM
same,TGI,SF-539 CNS,0.0263 µM
same,GI50,SK-MEL-2 melanoma,< 0.01 µM
same,TGI,SK-MEL-2 melanoma,0.0365 µM
same,GI50,SK-MEL-28 melanoma,< 0.01 µM
same,TGI,SK-MEL-28 melanoma,0.042 µM
same,GI50,SK-MEL-5 melanoma,< 0.01 µM
same,TGI,SK-MEL-5 melanoma,0.0138 µM
same,GI50,SK-OV-3 ovarian,< 0.01 µM
same,TGI,SK-OV-3 ovarian,< 0.01 µM
same,GI50,SN12C renal,< 0.01 µM
same,TGI,SN12C renal,0.154 µM
same,GI50,SNB-19 CNS,< 0.01 µM
same,TGI,SNB-19 CNS,0.192 µM
same,GI50,SR leukemia,< 0.01 µM
same,TGI,SR leukemia,< 0.01 µM
same,GI50,SW-620 colon,< 0.01 µM
same,TGI,SW-620 colon,0.122 µM
same,GI50,T-47D breast,< 0.01 µM
same,TGI,T-47D breast,< 0.01 µM
same,GI50,TK-10 renal,< 0.01 µM
same,TGI,TK-10 renal,0.0506 µM
same,GI50,U251 glioblastoma,< 0.01 µM
same,TGI,U251 glioblastoma,0.134 µM
same,GI50,UACC-257 melanoma,0.0117 µM
same,TGI,UACC-257 melanoma,0.0515 µM
same,GI50,UACC-62 melanoma,< 0.01 µM
same,TGI,UACC-62 melanoma,0.0283 µM
same,GI50,UO-31 renal,< 0.01 µM
same,TGI,UO-31 renal,0.0167 µM
